Like-named read-outs stand apart in the source and are kept apart here.
Tests used:
22RV1 cells = assay: Antiproliferative assay (resazurin, 72 h) in 22RV1 cells; assay type: cell-based; settings: for IC50 / inhibition at 1 µM: Homo sapiens; for antiproliferative activity, in words: enzalutamide-resistant cell lines LNCaP95 and 22RV1, SAR statements
Procedure: (§1) 22Rv1 cells were obtained from ATCC. LNCaP95 cells were provided by Dr. Yan Dong’s laboratory (Tulane University School of Medicine). LNCaP95 cells were maintained in an RPMI1640 medium with charcoal-stripped serum (CSS). 22Rv1 cells were maintained in an RPMI1640 medium with 10% FBS. Cells were seeded in 96-well plates (5 × 10^3 cells/well) containing a 50 μL growth medium for 24 h. After medium removal, a 100 μL fresh medium containing individual compounds at different concentrations was added to each well and incubated at 37 °C for 72 h. Then, 20 μL of resazurin was added for 2 h before recording fluorescence at 560 nm (excitation) and 590 nm (emission) using a Victor microtiter plate fluorometer (Perkin-Elmer, Waltham, MA, USA).

AR-V7 [1] = biological target: T1, AR-V7 (Homo sapiens, UniProt P10275); assay: AR-V7 downregulation in LNCaP95 cells (automated Western, Wes); settings: for downregulating the AR-V7, in words: LNCaP95; for DC50: read-out: AR-V7 Downregulation IC50, LNCaP95, 24 h treatment
T1 sequence (P10275 1-644 isoform P10275-3): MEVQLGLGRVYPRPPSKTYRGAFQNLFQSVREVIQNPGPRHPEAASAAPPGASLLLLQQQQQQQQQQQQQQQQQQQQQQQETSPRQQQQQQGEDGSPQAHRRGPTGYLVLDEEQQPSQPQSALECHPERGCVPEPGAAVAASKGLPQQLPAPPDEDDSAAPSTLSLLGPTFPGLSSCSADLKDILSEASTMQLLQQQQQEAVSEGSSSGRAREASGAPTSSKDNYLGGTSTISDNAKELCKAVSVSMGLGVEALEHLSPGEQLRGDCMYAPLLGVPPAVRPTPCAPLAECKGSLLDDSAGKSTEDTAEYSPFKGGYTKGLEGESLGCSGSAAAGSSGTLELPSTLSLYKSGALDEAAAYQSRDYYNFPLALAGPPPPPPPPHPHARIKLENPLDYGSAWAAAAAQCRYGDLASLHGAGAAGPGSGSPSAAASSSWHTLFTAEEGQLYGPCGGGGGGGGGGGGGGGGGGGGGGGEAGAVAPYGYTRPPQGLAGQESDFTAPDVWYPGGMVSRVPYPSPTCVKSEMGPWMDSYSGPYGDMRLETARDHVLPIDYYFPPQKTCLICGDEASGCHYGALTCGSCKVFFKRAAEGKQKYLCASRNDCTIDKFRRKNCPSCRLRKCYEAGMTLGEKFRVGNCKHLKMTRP
Procedure: (§2) Total AR and AR-V7 protein levels were determined using automated Western blotting (Wes Simple Western Analysis, ProteinSimple, San Jose, CA, USA). WES analyses were performed following the WES user manual. Briefly, LNCaP95 and 22RV1 cells were plated in a 12-well plate at a density of 2.5 × 10^5 cells per well. […] Samples were mixed with a master mix (ProteinSimple, San Jose, CA, USA) to give a final concentration of 0.2 mg/mL total protein, 1 × sample buffer, 1 × fluorescent molecular weight markers, and 40 mM DTT. Samples were heated at 95 °C for 5 min followed by centrifugation. Samples, blocking solution, primary antibodies, horseradish peroxidase-conjugated secondary antibodies, chemiluminescent substrate, and separation and stacking matrices were loaded into designated wells in a 384 well plate. After plate loading, fully automated electrophoresis and immunodetection took place in the capillary system. Proteins were separated by molecular weight at 375 V for 25 min, and primary and secondary antibodies were incubated for 30 min. The AR (Santa Cruz, Santa Cruz, CA, USA), AR-V7 (Santa Cruz, Santa Cruz, CA, USA), and actin (Novus, cat #NB600-503) antibodies were diluted in a proprietary antibody diluent at a 1:50 dilution ratio. Chemiluminescence was captured by a charge-coupled device camera, and the digital image was analyzed using Compass software 6.2.0 (ProteinSimple). The amount of each protein, relative to total protein content, was calculated based on peak areas. Total AR and AR-V7 levels were normalized to actin.

LNCaP95 cells = assay: Antiproliferative assay (resazurin, 72 h) in LNCaP95 cells; assay type: cell-based
Procedure: as §1

AR-full length (AR-FL) = biological target: T2, AR-full length (AR-FL) (Homo sapiens, UniProt P10275, T878A); assay: AR downregulation in LNCaP95 cells (automated Western, Wes); settings: for downregulating the AR-FL, in words: LNCaP95; for DC50: read-out: AR Downregulation IC50, LNCaP95, 24 h treatment
T2 sequence (P10275 1-920 T878A): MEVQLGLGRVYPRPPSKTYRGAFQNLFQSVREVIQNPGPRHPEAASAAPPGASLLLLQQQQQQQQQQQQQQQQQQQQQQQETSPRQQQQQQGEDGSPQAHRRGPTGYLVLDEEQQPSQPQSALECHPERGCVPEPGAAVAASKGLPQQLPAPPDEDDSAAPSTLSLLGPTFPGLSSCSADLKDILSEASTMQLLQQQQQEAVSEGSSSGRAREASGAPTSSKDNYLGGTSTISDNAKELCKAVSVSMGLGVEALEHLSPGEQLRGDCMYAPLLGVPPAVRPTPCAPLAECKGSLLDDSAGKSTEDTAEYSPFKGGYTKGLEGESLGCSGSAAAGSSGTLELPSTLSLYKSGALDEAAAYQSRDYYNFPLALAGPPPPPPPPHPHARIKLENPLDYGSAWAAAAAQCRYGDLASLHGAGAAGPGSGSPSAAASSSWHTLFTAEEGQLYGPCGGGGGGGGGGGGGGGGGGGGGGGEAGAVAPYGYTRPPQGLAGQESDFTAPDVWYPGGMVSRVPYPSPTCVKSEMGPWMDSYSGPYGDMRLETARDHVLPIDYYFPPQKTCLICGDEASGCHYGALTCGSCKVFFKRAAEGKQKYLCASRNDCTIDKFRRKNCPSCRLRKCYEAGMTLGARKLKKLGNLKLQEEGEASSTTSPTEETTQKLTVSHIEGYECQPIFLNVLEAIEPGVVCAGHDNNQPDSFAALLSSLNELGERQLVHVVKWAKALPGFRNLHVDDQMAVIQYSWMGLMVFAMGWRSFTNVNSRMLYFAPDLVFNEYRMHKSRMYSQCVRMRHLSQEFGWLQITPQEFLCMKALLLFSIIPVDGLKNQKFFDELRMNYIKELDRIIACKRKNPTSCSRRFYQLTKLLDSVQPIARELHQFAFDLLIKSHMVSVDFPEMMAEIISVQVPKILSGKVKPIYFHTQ
Procedure: as §2

AR-V7 [2] = biological target: T1, AR-V7; assay: AR-V7 downregulation in 22RV1 cells (automated Western, Wes); settings: read-out: AR-V7 Downregulation IC50; 22RV1, 24 h treatment
Procedure: as §2

[3] = 22RV1, 1.0 μM, read-out: Inhibitory Rate 22RV1 @1.0 μM
[4] = antiproliferation, 22RV1, 72 h, mean of three independent experiments, read-out: IC50 (μM) 22RV1
[5] = observed, −log IC50, 22RV1 antiproliferation, read-out: Obs pIC50 (converted)
[6] = LNCaP-95, antiproliferation, LNCaP95, 72 h, mean of three independent experiments, read-out: IC50 (μM) LNCaP95

SMILES: O=C(Nc1ccc(C(F)(F)F)c(C(F)(F)F)c1)c1cc(F)ccc1O [B9]
- IC50 (22RV1 cells; 22Rv1, antiproliferation, approximate value, read-out: IC50 in 22RV1 (text)): ~0.1 µM
- inhibition at 1 µM (22RV1 cells; [3]): 84.3%
- IC50 (22RV1 cells; [4]): 0.0997 ± 0.0221 µM
- IC50 (22RV1 cells; [5]): 0.0991 µM
- antiproliferative activity, in words (22RV1 cells): equivalent or improved anti-proliferation potency
- downregulating the AR-V7, in words (AR-V7 [1]): strong activity
- DC50 (AR-V7 [1]): 467 ± 204 nM
- IC50 (LNCaP95 cells; [6]): 0.13 ± 0.033 µM
- IC50 (LNCaP95 cells; LNCaP-95, antiproliferation, approximate value, read-out: IC50 in LNCaP95 (text)): ~0.1 µM
- downregulating the AR-FL, in words (AR-full length (AR-FL)): strong activity
- DC50 (AR-full length (AR-FL)): 551 ± 173 nM
- DC50 (AR-V7 [2]): 2860 ± 950 nM

SMILES: O=C(Nc1ccc(C(F)(F)F)c(C(F)(F)F)c1)c1cc(Cl)ccc1O [B1]
- inhibition at 1 µM (22RV1 cells; [3]): 59.2%
- IC50 (22RV1 cells; [4]): 0.258 ± 0.097 µM
- IC50 (22RV1 cells; [5]): 0.258 µM
- antiproliferative activity, in words (22RV1 cells): equivalent or improved anti-proliferation potency
- downregulating the AR-V7, in words (AR-V7 [1]): strong activity
- DC50 (AR-V7 [1]): 280 ± 117 nM
- IC50 (LNCaP95 cells; [6]): 0.239 ± 0.072 µM
- downregulating the AR-FL, in words (AR-full length (AR-FL)): strong activity
- DC50 (AR-full length (AR-FL)): 463 ± 224 nM
- DC50 (AR-V7 [2]): 4280 ± 1360 nM

SMILES: N#Cc1ccc(NC(=O)c2cc(Cl)ccc2O)cc1C(F)(F)F [B3]
- IC50 (22RV1 cells; 22Rv1, 72 h, read-out: IC50 (μM) 22RV1): 0.695 ± 0.246 µM
- inhibition at 1 µM (22RV1 cells; 22Rv1, read-out: Inhibitory Rate 22RV1 @1.0 μM): 34.9%
- IC50 (22RV1 cells; 22Rv1, read-out: Obs pIC50 (converted)): 0.695 µM
- downregulating the AR-V7, in words (AR-V7 [1]): strong activity
- DC50 (AR-V7 [1]): 850 ± 246 nM
- IC50 (LNCaP95 cells; LNCaP-95, 72 h, read-out: IC50 (μM) LNCaP95): 0.354 ± 0.066 µM
- downregulating the AR-FL, in words (AR-full length (AR-FL)): strong activity
- DC50 (AR-full length (AR-FL)): 781 ± 512 nM
- DC50 (AR-V7 [2]): 354 ± 134 nM

SMILES: O=C(Nc1ccc(C(F)(F)F)c(C(F)(F)F)c1)c1cc(F)c(F)cc1O [B14]
- inhibition at 1 µM (22RV1 cells; [3]): 47.3%
- IC50 (22RV1 cells; [4]): 0.382 ± 0.078 µM
- IC50 (22RV1 cells; [5]): 0.382 µM
- downregulating the AR-V7, in words (AR-V7 [1]): strong activity
- DC50 (AR-V7 [1]): 491 ± 156 nM
- IC50 (LNCaP95 cells; [6]): 0.199 ± 0.055 µM
- downregulating the AR-FL, in words (AR-full length (AR-FL)): strong activity
- DC50 (AR-full length (AR-FL)): 498 ± 185 nM
- DC50 (AR-V7 [2]): > 10000 nM

Source: PMC10222209 (Pharmaceuticals, 2023)
